Among the data in patent US20130116241A1, “NOVEL INHIBITOR COMPOUNDS OF PHOSPHODIESTERASE TYPE 10A” (AbbVie Inc., priority 2011, published 2013) are IC50 values, retold here.

Counter-ions that a name gives are not always drawn.

Chain of human PDE10A (Q9Y233 290-1055 limits assumed): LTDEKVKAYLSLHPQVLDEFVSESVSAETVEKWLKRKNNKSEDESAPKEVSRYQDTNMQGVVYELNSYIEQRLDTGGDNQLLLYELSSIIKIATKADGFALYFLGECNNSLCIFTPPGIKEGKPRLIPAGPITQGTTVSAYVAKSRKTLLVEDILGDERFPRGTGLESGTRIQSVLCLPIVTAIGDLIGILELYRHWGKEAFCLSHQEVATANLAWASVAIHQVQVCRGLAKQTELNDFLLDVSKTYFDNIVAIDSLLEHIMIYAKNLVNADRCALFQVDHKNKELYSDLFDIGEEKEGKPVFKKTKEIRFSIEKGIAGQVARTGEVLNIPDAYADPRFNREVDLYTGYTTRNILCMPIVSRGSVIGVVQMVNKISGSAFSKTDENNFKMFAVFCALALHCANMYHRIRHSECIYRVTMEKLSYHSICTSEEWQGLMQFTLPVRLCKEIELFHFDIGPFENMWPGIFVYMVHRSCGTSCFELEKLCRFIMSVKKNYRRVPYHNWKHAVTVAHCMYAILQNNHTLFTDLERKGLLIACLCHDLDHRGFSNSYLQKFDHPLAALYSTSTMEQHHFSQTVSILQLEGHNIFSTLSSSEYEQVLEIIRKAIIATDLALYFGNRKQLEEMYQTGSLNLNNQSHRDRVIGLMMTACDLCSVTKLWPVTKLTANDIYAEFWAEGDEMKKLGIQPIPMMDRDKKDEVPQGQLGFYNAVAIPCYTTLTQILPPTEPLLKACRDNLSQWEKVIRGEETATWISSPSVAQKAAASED

The test has as its target human PDE10A (UniProt Q9Y233). Description: Measurement of PDE activity (recombinant enzyme, HTRF cAMP kit). The class given is biochemical. The settings on record: Table 1, substrate 20 nM for PDE10, 60 minutes at 29 C, read-out: IC50. The procedure:
The recombinant PDE proteins are used in in vitro enzymatic reaction for measurement of PDE activity. These recombinant proteins, including PDE10A (human, rat and mouse PDE10) and isoforms of PDEs 1, 3, 4, and 5, were purchased from commercial vendor BPS Bioscience. The enzymatic activity of PDEs was determined by cAMP measurement kit from CisBio (IBA) using HTRF technology.
The PDE enzymatic reaction was carried out in assay buffer (20 mM Tris-HCl pH7.5, 10 mM MgCl2, 0.1% bovine serum albumin) containing enzyme and substrate. The PDE enzymes concentration ranged from 10 pM-250 pM, depending on each enzyme's specific activity. The substrate cyclic nucleotide (cAMP or cGMP) concentration used in the assay was 20 nM for PDE10, and 100 nM for other PDEs. The inhibitory effect of compound was determined by incubating various concentration of inhibitor in the enzymatic assay. Typically, compound was serial diluted in DMSO then further diluted in assay buffer. Next, the compound at varying concentration was mixed with PDE enzyme. The reaction was initiated by addition of cyclic nucleotide substrate, and incubated for 60 minutes at 29 C. The reaction was stopped by addition of lysis buffer from assay kit. The cAMP-d2 and anti-cAMP cryptate in the lysis buffer detected the level of cAMP left from the PDE hydrolysis reaction. The PDE activity is reversely correlated with the amount of cAMP left in the reaction and can be converted to the percent activity of an uninhibited control (100%). Thus, IC50 value of inhibitor can be obtained by plotting inhibitor concentration against PDE activity at that concentration.
Regarding `O=c1c2c(N3CCOCC3)cccc2cnn1CCc1cn2ccccc2n1` [Example 174, 2-[2-(Imidazo[1,2-a]pyridin-2-yl)ethyl]-8-(morpholin-4-yl)phthalazin-1(2H)-one], the IC50 was under 100 nM.

As to `O=c1c2c(NC3COC3)cccc2ccn1C1CC1c1ccc2ccccc2n1` (single isomer, unassigned; (+)) [Example 235a, (+) anti 8-(oxetan-3-ylamino)-2-(2-(quinolin-2-yl)cyclopropyl)isoquinolin-1(2H)-one], the concentration for half-maximal inhibition (IC50) was under 100 nM.

`O=c1c2c(-c3ccc4[nH]ccc4c3)cccc2cnn1CCc1ccc2ccccc2n1` [Example 122, 8-(1H-Indol-5-yl)-2-[2-(quinolin-2-yl)ethyl]phthalazin-1(2H)-one]: the 50% inhibitory concentration (IC50) lay in the range of 200 to 500 nM.

Consider `COc1ncc(-c2csc3cnn(CCc4ccc5ccccc5n4)c(=O)c23)cn1` [Example 59, 3-(2-methoxypyrimidin-5-yl)-5-[2-(quinolin-2-yl)ethyl]thieno[2,3-d]pyridazin-4(5H)-one], for which the half-inhibitory concentration (IC50) is under 100 nM.

With `O=c1c2c(-c3cccnc3)cccc2ccn1C1CC1c1ccc2ccccc2n1` (stereo not drawn) [Example 239, anti 8-(pyridin-3-yl)-2-(2-(quinolin-2-yl)cyclopropyl)isoquinolin-1(2H)-one hydrochloride], the IC50 is under 100 nM.

Regarding `CC(C)Cn1cc(-c2cccc3cnn(CCc4ccc5ccccc5n4)c(=O)c23)cn1` [Example 140, 8-[1-(2-Methylpropyl)-1H-pyrazol-4-yl]-2-[2-(quinolin-2-yl)ethyl]phthalazin-1(2H)-one], the IC50 lay in the range of 200 to 500 nM.

For the molecule `O=c1c2c(-c3cccnc3)cccc2cnn1CCc1cn2ccccc2n1` [Example 165, 2-[2-(Imidazo[1,2-a]pyridin-2-yl)ethyl]-8-(pyridin-3-yl)phthalazin-1(2H)-one], the half-maximal inhibitory concentration (IC50) lay within 200 to 500 nM.

On to `O=c1c2c(OCc3ccncc3)cccc2cnn1CCc1cn2ccccc2n1` [compound 380, 2-[2-(imidazo[1,2-a]pyridin-2-yl)ethyl]-8-(pyridin-4-ylmethoxy)phthalazin-1(2H)-one], for which the IC50 was in the range of 100 to 200 nM.

Consider `O=c1c2c(-c3cccs3)cccc2cnn1CCc1ccc2ccccc2n1` [Example 119, 2-[2-(Quinolin-2-yl)ethyl]-8-(thiophen-2-yl)phthalazin-1(2H)-one], for which the concentration for half-maximal inhibition (IC50) lay in the range of 200 to 500 nM.

Take `O=c1c2c(-c3cnc(C4CC4)nc3)cccc2cnn1CCc1cn2ccccc2n1` [compound 343, 8-(2-cyclopropylpyrimidin-5-yl)-2-[2-(imidazo[1,2-a]pyridin-2-yl)ethyl]phthalazin-1(2H)-one]: the IC50 fell in the range of 200 to 500 nM.

For the molecule `O=c1c2c(N3CCC(O)CC3)cccc2ccn1[C@@H]1C[C@H]1c1ccc2ccccc2n1` (relative stereo) [Example 253, anti 8-(4-hydroxypiperidin-1-yl)-2-(2-(quinolin-2-yl)cyclopropyl)isoquinolin-1(2H)-one (2E)-but-2-enedioate], the IC50 is under 100 nM.

Consider `O=c1c2c(-c3cccc4ncccc34)csc2cnn1CCc1ccc2ccccc2n1` [Example 47, 3-(quinolin-5-yl)-5-[2-(quinolin-2-yl)ethyl]thieno[2,3-d]pyridazin-4(5H)-one], for which the IC50 fell in the range of 100 to 200 nM.

With `O=c1c2c(-c3ccccc3O)csc2cnn1CCc1ccc2ccccc2n1` [Example 23, 3-(2-hydroxyphenyl)-5-[2-(quinolin-2-yl)ethyl]thieno[2,3-d]pyridazin-4(5H)-one], the half-inhibitory concentration (IC50) was under 100 nM.

As for `O=c1c2c(-c3ccccc3Cl)csc2cnn1CCc1ccc2ccccc2n1` [Example 17, 3-(2-chlorophenyl)-5-[2-(quinolin-2-yl)ethyl]thieno[2,3-d]pyridazin-4(5H)-one], the IC50 fell in the range of 100 to 200 nM.

Turning to `O=c1c2c(-c3ccc4c(c3)CCO4)csc2cnn1CCc1ccc2ccccc2n1` [Example 46, 3-(2,3-dihydrobenzofuran-5-yl)-5-(2-quinolin-2-yl-ethyl)-5H-thieno[2,3-d]pyridazin-4-one], the IC50 is under 100 nM.

In the case of `O=c1c2c(N3CCCC4(CC3)CNCCO4)cccc2cnn1CCc1cn2ccccc2n1` (centres unmarked) [compound 330, dihydrochloride], the IC50 is 200 to 500 nM.

Turning to `CN1CC(Nc2cccc3cnn(CCc4cn5ccccc5n4)c(=O)c23)C1` [compound 385, 2-[2-(imidazo[1,2-a]pyridin-2-yl)ethyl]-8-[(1-methylazetidin-3-yl)amino]phthalazin-1(2H)-one], the IC50 is 200 to 500 nM.

Turning to `O=c1c2c(-c3cccc4[nH]ccc34)csc2cnn1CCc1ccc2ccccc2n1` [Example 45, 3-(1H-indol-4-yl)-5-(2-quinolin-2-yl-ethyl)-5H-thieno[2,3-d]pyridazin-4-one], the IC50 lay within 100 to 200 nM.

For `O=c1c2c(Oc3cccnc3)cccc2cnn1CCc1cn2ccccc2n1` [compound 382, 2-[2-(imidazo[1,2-a]pyridin-2-yl)ethyl]-8-(pyridin-3-yloxy)phthalazin-1(2H)-one], the half-inhibitory concentration (IC50) is under 100 nM.

With `O=c1c2ccccc2c(N2CCOCC2)nn1CCc1cn2ccccc2n1` [Example 201, 2-[2-(Imidazo[1,2-a]pyridin-2-yl)ethyl]-4-(morpholin-4-yl)phthalazin-1(2H)-one], the 50% inhibitory concentration (IC50) lay within 200 to 500 nM.

`O=c1c2c(-c3ccc4c(c3)OCO4)cccc2cnn1CCc1ccc2ccccc2n1` [Example 138, 8-(1,3-Benzodioxol-5-yl)-2-[2-(quinolin-2-yl)ethyl]phthalazin-1(2H)-one]: the IC50 fell in the range of 200 to 500 nM.

Regarding `O=c1c2c(N[C@@H]3CCOC3)cccc2cnn1CCc1cn2ccccc2n1` [compound 377, 2-[2-(imidazo[1,2-a]pyridin-2-yl)ethyl]-8-[(3R)-tetrahydrofuran-3-ylamino]phthalazin-1(2H)-one], the half-maximal inhibitory concentration (IC50) is under 100 nM.

As to `COc1ccc(F)c(-c2csc3cnn(CCc4ccc5ccccc5n4)c(=O)c23)c1` [Example 91, 3-(2-fluoro-5-methoxyphenyl)-5-[2-(quinolin-2-yl)ethyl]thieno[2,3-d]pyridazin-4(5H)-one], the IC50 was in the range of 100 to 200 nM.

As for `O=c1c2c(NC3CCOCC3)cccc2cnn1CCc1cn2ccccc2n1` [compound 384, 2-[2-(imidazo[1,2-a]pyridin-2-yl)ethyl]-8-(tetrahydro-2H-pyran-4-ylamino)phthalazin-1(2H)-one], the IC50 lay in the range of 100 to 200 nM.

`O=c1c2c(-c3cccc(F)c3)csc2cnn1CCc1ccc2ccccc2n1` [Example 30, 3-(3-fluorophenyl)-5-[2-(quinolin-2-yl)ethyl]thieno[2,3-d]pyridazin-4(5H)-one]: the half-inhibitory concentration (IC50) lay in the range of 100 to 200 nM.

As for `O=c1c2c(-c3ccc(O)cc3)csc2cnn1CCc1ccc2ccccc2n1` [Example 16, 3-(4-hydroxyphenyl)-5-[2-(quinolin-2-yl)ethyl]thieno[2,3-d]pyridazin-4(5H)-one], the 50% inhibitory concentration (IC50) was under 100 nM.

As for `Cc1ccc(-c2csc3cnn(CCc4ccc5ccccc5n4)c(=O)c23)cc1` [Example 7, 3-(4-methylphenyl)-5-[2-(quinolin-2-yl)ethyl]thieno[2,3-d]pyridazin-4(5H)-one], the half-maximal inhibitory concentration (IC50) fell in the range of 200 to 500 nM.

As to `CN(C)C(=O)c1cccc(-c2csc3cnn(CCc4ccc5ccccc5n4)c(=O)c23)c1` [Example 32, N,N-dimethyl-3-{4-oxo-5-[2-(quinolin-2-yl)ethyl]-4,5-dihydrothieno[2,3-d]pyridazin-3-yl}benzamide], the concentration for half-maximal inhibition (IC50) lay within 200 to 500 nM.

As for `O=c1c2c(-c3cncnc3)cccc2cnn1CCc1ccc2ccccc2n1` [Example 124, 8-(Pyrimidin-5-yl)-2-[2-(quinolin-2-yl)ethyl]phthalazin-1(2H)-one], the IC50 is under 100 nM.

Take `N#Cc1cccc(-c2csc3cnn(CCc4ccc5ccccc5n4)c(=O)c23)c1` [Example 29, 3-[4-Oxo-5-(2-quinolin-2-yl-ethyl)-4,5-dihydro-thieno[2,3-d]pyridazin-3-yl}-benzonitrile]: the IC50 is under 100 nM.

Regarding `O=c1c2c(-c3ccc(F)cc3)cccc2ccn1[C@@H]1C[C@H]1c1ccc2ccccc2n1` (relative stereo) [Example 267, anti 8-(4-fluorophenyl)-2-(2-(quinolin-2-yl)cyclopropyl)isoquinolin-1(2H)-one], the IC50 is under 100 nM.

Turning to `O=c1c2c(-c3ccncc3)coc2ccn1[C@@H]1C[C@H]1c1ccc2ccccc2n1` (relative stereo) [Example 233, anti 3-(pyridin-4-yl)-5-(2-(quinolin-2-yl)cyclopropyl)furo[3,2-c]pyridin-4(5H)-one], the IC50 is under 100 nM.

For `O=c1c2cccc(-c3cccnc3)c2cnn1CCc1ccc2ccccc2n1` [compound 402, 5-(pyridin-3-yl)-2-[2-(quinolin-2-yl)ethyl]phthalazin-1(2H)-one], the half-maximal inhibitory concentration (IC50) is under 100 nM.

For the molecule `O=c1c2c(-c3cncnc3)cccc2ccn1[C@@H]1C[C@H]1c1ccc2cc(F)ccc2n1` (relative stereo) [Example 273, anti 2-(2-(6-fluoroquinolin-2-yl)cyclopropyl)-8-(pyrimidin-5-yl)isoquinolin-1(2H)-one], the half-maximal inhibitory concentration (IC50) was under 100 nM.

On to `O=c1c2c(-c3ccncc3)csc2cnn1CCc1ccc2ccccc2n1` [Example 3, 3-(Pyridin-4-yl)-5-[2-(quinolin-2-yl)ethyl]thieno[2,3-d]pyridazin-4(5H)-one], for which the half-inhibitory concentration (IC50) was under 100 nM.

As usually defined, the IC50 is the concentration that gives 50% inhibition.
